From US20220064196A1, “EGFR Inhibitors, Compositions and Methods Thereof” (Betta Pharmaceuticals Co., Ltd., priority 2019, published 2022)
Read-outs that look alike come from different tables or passages of the source.

What was measured:
Ba/F3-Del19/T790M/C797S = Ba/F3-Del19/T790M/C797S (Homo sapiens, UniProt P00533, T790M/C797S, cells depend on it, form not given); experiment: Ba/F3-Del19/T790M/C797S cells proliferation assay (CellTiter Glo); format: cell-based; details: cell proliferation, 72 h, read-out: Ba/F3-Del19/T790M/C797S IC50
Chain of Ba/F3-Del19/T790M/C797S (P00533 with tags, fused parts or gaps DEL746-750/T790M/C797S, form open): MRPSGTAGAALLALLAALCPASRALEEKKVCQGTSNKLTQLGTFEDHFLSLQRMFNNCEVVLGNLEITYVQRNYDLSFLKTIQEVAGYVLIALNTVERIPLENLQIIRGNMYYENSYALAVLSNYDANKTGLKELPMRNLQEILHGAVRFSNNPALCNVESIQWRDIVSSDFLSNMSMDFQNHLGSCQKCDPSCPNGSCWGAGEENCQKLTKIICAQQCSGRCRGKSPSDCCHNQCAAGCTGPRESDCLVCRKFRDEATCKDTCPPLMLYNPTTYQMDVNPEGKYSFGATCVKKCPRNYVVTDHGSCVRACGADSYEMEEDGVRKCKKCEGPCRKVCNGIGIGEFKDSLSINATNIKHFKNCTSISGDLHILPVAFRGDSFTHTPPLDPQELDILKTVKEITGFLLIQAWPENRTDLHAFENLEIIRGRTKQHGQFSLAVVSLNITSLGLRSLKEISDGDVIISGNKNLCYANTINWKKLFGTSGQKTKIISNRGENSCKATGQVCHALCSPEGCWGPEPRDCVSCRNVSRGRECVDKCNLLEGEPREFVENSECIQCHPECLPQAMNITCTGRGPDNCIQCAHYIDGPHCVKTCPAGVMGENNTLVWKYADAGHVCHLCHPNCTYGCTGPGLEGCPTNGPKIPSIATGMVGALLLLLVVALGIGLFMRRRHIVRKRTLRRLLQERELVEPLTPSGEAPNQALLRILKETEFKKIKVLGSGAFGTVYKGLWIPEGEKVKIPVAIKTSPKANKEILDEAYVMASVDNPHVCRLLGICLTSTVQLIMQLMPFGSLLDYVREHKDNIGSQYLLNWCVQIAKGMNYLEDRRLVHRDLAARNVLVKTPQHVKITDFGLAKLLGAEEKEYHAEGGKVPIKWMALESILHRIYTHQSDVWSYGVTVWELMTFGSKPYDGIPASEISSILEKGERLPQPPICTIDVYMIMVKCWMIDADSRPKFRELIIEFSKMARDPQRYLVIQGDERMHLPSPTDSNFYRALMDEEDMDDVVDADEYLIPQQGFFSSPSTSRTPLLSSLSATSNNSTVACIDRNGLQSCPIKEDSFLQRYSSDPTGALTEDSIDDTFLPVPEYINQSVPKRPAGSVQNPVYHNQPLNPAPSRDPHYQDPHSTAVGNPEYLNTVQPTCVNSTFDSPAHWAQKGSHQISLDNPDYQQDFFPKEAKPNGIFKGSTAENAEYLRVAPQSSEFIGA
Description: (§1) a) The medium was preheated in a 37°0 C. water bath in advance.
(§2) b) Remove the cryogenic vials from the liquid nitrogen tank, quickly put it into a 37° C. water bath, and completely melt it in 1 min.
(§3) c) Transfer the cell suspension to a 15 mL centrifuge tube containing 8 mL medium, centrifuge 1000 rpm, 5 min.
(§4) d) Discard the supernatant, resuspend the cells in 1 mL medium, and transfer to a 75 cm^2 flask containing 15 mL medium, culture the cells in an incubator at 37° C., 5% CO2.
(§5) a) The medium was preheated in a 37° C. water bath in advance.
(§6) b) Collect cell to a 15 mL centrifuged tube, centrifuge at 1000 rpm for 5 min. Discard the supernatant, count, and make the cell density at 1×10^4 cells/mL, then place it in a 37° C., 5% CO2 incubator.
(§7) a) The test compound (20 mM stock solution) was diluted to 200uM with 100% DMSO as starting concentration then 3-fold serial diluted with “9+0” concentrations. in a 96-well dilution plate (Cat # P-05525, Labcyte);
(§8) b) The above compound solution was diluted 1:20 times with culture medium to prepare a 10 fold working solution;
(§9) a) Take cells in log phase growth, centrifuge at 1000 rpm for 5 min, then resuspend the cells with culture medium, then count cells;
(§10) b) Cells were seeded to 96-well cell culture plate with density at 2000 cells/well;
(§11) a) Compounds prepared at step 2 were added to cell plate with 15 μL per well, the final concentrations were 1000,333, 111.1, 37,12.3, 4.1, 1.4, 0.5, 0.2 and 0 nM, and the final concentration of DMSO was 0.5%. The blank control well was a culture medium (0.5% DMSO);
(§12) b) The cells were incubated for an additional 72 h in the incubator.
(§13) a) Remove the 96-well cell culture plate and add 50 μl of CTG reagent (CellTiter Glo kit, promega, Cat # G7573).
(§14) b) Plate was shaked for 2 min and then let it cool for 10 min at room temperature.
(§15) c) The Luminescence signal value was read using a PerkinElmer reader. Experimental data analysis
(§16) Data were analyzed using GraphPad Prism 6.0 software to obtain a fitted curve of compound activity.
(§17) Fit the Compound IC50 from non-linear regression equation:
(§18) Y=Bottom+(Top-Bottom)/(1+10((LogIC50-X)×Hill Slope));
(§19) X: The log of the concentration of the compound; Y: Luminescence value.
(§20) The cells proliferation assay results are expressed with IC50, shown as Table 2.

Ba/F3-L858R/T790M/C797S = Ba/F3-L858R/T790M/C797S (Homo sapiens, UniProt P00533, T790M/C797S/L858R, cells depend on it); experiment: Ba/F3-L858R/T790M/C797S cells proliferation assay (CellTiter Glo); format: cell-based; details: cell proliferation, 72 h, read-out: Ba/F3-L858R/T790M/C797S IC50
Chain of Ba/F3-L858R/T790M/C797S (P00533 whole entry T790M/C797S/L858R): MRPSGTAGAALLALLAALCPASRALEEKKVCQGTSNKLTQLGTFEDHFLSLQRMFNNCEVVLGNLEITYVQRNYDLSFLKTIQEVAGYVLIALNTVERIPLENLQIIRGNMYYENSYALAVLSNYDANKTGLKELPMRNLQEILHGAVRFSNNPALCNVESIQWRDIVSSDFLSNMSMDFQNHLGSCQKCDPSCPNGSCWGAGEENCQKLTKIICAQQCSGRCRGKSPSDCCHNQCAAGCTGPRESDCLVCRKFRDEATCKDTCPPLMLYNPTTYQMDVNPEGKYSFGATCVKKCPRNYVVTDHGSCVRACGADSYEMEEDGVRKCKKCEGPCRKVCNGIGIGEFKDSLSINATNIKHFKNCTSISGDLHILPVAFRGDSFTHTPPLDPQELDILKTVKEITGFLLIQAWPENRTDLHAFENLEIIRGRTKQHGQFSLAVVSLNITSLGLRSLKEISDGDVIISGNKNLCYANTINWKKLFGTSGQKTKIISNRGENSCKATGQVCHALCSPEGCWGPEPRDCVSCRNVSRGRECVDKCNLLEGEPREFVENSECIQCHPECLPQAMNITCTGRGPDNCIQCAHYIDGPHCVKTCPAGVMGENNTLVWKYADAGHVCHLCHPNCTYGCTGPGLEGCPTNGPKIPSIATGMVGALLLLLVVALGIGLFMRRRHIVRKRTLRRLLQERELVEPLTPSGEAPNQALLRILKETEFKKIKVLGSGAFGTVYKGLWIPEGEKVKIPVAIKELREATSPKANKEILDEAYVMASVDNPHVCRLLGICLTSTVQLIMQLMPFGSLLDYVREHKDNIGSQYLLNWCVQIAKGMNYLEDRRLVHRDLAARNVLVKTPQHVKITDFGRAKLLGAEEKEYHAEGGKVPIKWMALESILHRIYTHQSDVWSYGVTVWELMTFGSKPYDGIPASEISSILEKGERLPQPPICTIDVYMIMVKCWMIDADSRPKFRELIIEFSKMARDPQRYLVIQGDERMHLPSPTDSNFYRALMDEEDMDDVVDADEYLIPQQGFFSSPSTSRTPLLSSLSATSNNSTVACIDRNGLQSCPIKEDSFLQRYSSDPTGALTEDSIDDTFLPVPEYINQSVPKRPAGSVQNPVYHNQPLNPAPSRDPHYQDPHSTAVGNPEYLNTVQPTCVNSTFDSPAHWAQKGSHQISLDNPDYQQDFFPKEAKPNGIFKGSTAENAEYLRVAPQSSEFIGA
Description: as §1, §2, §3, §4, §5, §6, §7, §8, §9, §10, §11, §12, §13, §14, §15, §16, §17, §18, §19, §20

EGFR WT = EGFR WT (Homo sapiens, UniProt P00533); experiment: Kinase assay (mobility shift), EGFR wildtype; format: biochemical; details: top concentration 300 nM
Chain of EGFR WT (P00533 25-1210): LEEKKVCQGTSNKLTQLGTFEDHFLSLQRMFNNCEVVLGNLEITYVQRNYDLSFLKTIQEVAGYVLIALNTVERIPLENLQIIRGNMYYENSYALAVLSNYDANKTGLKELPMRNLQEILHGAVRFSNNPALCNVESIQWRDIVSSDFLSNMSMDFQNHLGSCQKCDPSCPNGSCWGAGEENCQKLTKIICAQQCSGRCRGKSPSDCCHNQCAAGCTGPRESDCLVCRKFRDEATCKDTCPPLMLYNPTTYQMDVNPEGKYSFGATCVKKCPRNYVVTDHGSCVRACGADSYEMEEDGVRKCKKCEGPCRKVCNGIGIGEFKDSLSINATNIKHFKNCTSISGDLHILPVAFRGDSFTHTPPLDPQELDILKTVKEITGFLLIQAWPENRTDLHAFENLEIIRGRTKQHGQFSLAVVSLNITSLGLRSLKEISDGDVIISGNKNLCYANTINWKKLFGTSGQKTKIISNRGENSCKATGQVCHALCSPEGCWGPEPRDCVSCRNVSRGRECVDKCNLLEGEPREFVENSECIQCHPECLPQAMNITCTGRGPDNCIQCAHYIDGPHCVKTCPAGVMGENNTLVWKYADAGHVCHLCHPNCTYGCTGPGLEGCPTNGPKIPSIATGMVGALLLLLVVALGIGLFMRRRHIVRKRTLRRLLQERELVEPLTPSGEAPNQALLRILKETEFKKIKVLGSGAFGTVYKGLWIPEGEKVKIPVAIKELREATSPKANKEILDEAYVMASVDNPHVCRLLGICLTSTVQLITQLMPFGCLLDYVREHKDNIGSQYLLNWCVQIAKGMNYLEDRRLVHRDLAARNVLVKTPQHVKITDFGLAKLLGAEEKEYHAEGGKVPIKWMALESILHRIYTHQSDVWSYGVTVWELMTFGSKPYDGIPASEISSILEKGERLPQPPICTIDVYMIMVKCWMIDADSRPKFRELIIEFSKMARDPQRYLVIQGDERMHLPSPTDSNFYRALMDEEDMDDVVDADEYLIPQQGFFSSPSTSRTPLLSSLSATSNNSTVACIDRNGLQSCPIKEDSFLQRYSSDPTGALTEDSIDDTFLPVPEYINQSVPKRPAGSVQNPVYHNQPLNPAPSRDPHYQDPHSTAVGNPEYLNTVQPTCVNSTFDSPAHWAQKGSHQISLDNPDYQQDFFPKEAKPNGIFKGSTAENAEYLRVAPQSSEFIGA
Description: (§21) Test 1 Kinase Assay for EGFR Del19/T790M/C797S and EGFR Wildtype
(§22) Enzyme reaction protocol are as follows:
(§23) 1. Preparing 1* Kinase buffer as followed.
(§24) 2. Preparing Compound Concentration Gradient: Compounds were tested at a concentration of 300 nM, diluted to 100-fold final concentration in 100% DMSO solution in 96-well plates, and compounds were diluted 3 times with Precision, 10 concentrations. Each concentration of the compound was then further diluted to a 5-fold final concentration of the intermediate dilution solution using 1* Kinase buffer.
(§25) 3.5 μL of each of the prepared intermediate dilution compounds was separately added to the compound wells of the 384-well plate, and each concentration was tested for duplicate wells; 5 μL of 5% DMSO was added to the negative control wells and the positive control wells, respectively.
(§26) 4. 2.5-fold final concentration of the kinase solution was prepared using 1*Kinase buffer.
(§27) 5. Add 10 μL of 2.5-fold final concentration of kinase solution to the compound well and positive control well; add 10 μL of 1*Kinase buffer to the negative control well.
(§28) 6. Centrifuge at 1000 rpm for 30 seconds, shake the reaction plate and incubate for 10 minutes at room temperature.
(§29) 7. A mixed solution of 2.5 times the final concentration of ATP and Kinase substrate (5-FAM-EEPLYWSFPAKKK-CONH2) was prepared using 1*Kinase buffer.
(§30) 8. 10 μL of a 2.5-fold final concentration of a mixed solution of ATP and a substrate was added to initiate the reaction.
(§31) 9. Centrifuge the 384-well plate at 1000 rpm for 30 seconds, mix by shaking, and incubate at room temperature for the corresponding time.
(§32) 10. Add 30 μL of the stop solution to stop the kinase reaction, centrifuge at 1000 rpm for 30 seconds, and mix by shaking.
(§33) 11. Read the conversion rate with Caliper EZ Reader.
(§34) Convert conversion values to inhibition values:
(§35) Percent inhibition 32 (max-conversion)/(max-min)*100.
(§36) “max” stands for the mean value of the positive control well ratio; “min” stands for the mean value of the negative control well.
(§37) Fit the data in log(inhibitor) vs. response Variable slope of GraphPad Prism 5 to obtain IC50 values.
(§38) Equation used is: Y=Bottom+(Top-Bottom)/(1+(IC50/X)^HillSlope)

EGFR L858R/T790M/C797S = EGFR L858R/T790M/C797S (Homo sapiens, UniProt P00533, C797S/L858R/T790M); experiment: Kinase assay (mobility shift), EGFR L858R/T790M/C797S; format: biochemical
Chain of EGFR L858R/T790M/C797S (P00533 25-1210 T790M/C797S/L858R): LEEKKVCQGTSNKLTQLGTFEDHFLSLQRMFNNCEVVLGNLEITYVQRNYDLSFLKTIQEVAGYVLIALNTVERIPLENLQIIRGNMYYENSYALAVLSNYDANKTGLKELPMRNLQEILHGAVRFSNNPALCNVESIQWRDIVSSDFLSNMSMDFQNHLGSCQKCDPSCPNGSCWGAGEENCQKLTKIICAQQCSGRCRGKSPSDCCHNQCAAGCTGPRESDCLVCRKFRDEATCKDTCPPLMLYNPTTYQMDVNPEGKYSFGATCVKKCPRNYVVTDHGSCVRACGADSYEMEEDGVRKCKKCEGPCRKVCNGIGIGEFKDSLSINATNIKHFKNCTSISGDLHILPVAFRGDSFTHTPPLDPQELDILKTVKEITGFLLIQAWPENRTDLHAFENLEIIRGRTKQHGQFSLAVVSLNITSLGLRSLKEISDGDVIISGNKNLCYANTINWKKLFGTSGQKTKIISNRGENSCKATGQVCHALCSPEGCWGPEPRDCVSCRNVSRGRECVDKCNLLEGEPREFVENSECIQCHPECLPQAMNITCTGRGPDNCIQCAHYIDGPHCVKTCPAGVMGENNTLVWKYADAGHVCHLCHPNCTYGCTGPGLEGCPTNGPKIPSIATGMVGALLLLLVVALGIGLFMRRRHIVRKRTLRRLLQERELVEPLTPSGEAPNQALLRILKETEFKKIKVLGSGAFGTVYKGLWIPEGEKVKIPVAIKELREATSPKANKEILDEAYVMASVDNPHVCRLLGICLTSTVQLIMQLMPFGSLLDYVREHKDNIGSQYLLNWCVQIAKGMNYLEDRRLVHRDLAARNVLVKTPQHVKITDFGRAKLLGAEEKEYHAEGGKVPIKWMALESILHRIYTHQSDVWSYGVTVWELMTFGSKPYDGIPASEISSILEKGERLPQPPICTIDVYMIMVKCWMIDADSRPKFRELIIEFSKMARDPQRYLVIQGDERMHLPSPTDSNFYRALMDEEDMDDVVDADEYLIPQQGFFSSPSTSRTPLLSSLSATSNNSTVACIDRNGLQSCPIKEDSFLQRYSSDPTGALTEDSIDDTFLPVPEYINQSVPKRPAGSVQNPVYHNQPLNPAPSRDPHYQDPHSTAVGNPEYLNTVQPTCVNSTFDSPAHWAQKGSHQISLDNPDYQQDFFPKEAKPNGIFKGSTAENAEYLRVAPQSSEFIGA
Description: [Worded in the source for another variant; this variant is reported under the same test.] as §21, §22, §23, §24, §25, §26, §27, §28, §29, §30, §31, §32, §33, §34, §35, §36, §37, §38

[1] = Pharmacokinetic assay, oral administration; format: in vivo; details: rat, male SD rats, p.o. 5 mg/kg, plasma, formulation differs per row
Description: Test 5 Pharmacokinetic Assay
Male SD rats, oral administration (intragastric administration), 3 in each group. Animals administered by gavage were fasted overnight before the experiment, and the fasting time was from at least 12 hours before administration to 4 hours after administration. The blood was collected using the orbital vein. Time of blood collection by oral administration: 15 min, 30 min, 1 h, 2 h, 4 h, 7 h, 24 h. The blood collection volume was 300 uL, and after anticoagulation with 2.0% EDTA, the blood was centrifuged at 4000 rpm for 5 min, and the blood plasma was taken for about 100 uL, and placed in −20° C. for examination. The plasma sample was analyzed using liquid chromatography tandem mass spectrometry (LC-MS/MS). Plasma concentration-time data for individual animals were analyzed using WinNonlin (V4.1, Pharsight) software with a non-compartmental model and the pharmacokinetic parameters of the test compounds were calculated.

A431 (WT) = experiment: A431 cells proliferation assay (CellTiter Glo); format: cell-based; details: Homo sapiens, A-431; cell proliferation, 72 h
Description: Test 4 A431 Cells Proliferation Assay
DMEM and 10% FBS and 1% PS.
as §5, §2, §3, §4, §6
a) The test compound (20 mM stock solution) was diluted to 2 mM with 100% DMSO as starting concentration then 3-fold serial diluted with “9+0” concentrations. in a 96-well dilution plate (Cat # P-05525, Labcyte);
b) The above compound solution was diluted 1:40 times with culture medium to prepare a 5 fold working solution;
as §9
b) Cells were seeded to 96-well cell culture plate with density at 5000 cells/well;
a) Compounds prepared at step 2 were added to cell plate with 40 μL per well, the final concentrations were 10000, 3333,1111.1, 370.4, 123.5, 41.2, 13.7, 4.6, 1.5 and 0 nM, and the final concentration of DMSO was 0.5%. The blank control well was a culture medium (0.5% DMSO);
as §12
a) Remove the 96-well cell culture plate and add 60 μl of CTG reagent (CellTiter Glo kit, promega, Cat # G7573).
as §14
c) The Luminescence signal value was read using a PerkinElmer reader.
Experimental Data Analysis
as §16, §17
Y=Bottom+(Top-Bottom)/(1+10((LogIC50-X)×HillSlope));
as §19
The cells proliferation assay results are expressed with IC50, shown as Table 3.

SMILES	GI50 (Ba/F3-Del19/T790M/C797S; class symbols) [nM]	GI50 (Ba/F3-L858R/T790M/C797S; class symbols) [nM]	IC50 (EGFR WT) [nM]	IC50 (EGFR L858R/T790M/C797S; class symbols) [nM]	GI50 (Ba/F3-Del19/T790M/C797S; numeric values) [nM]	GI50 (Ba/F3-L858R/T790M/C797S; numeric values) [nM]	AUC(0-t) [1] [ng·h/mL]	Cmax [1] [ng/mL]	Tmax [1] [h]	half-life [1] [h]	IC50 (EGFR L858R/T790M/C797S; numeric values) [nM]	IC50 (A431 (WT)) [nM]
CNC1CCC2(CC1)CN(c1ccc(Nc3ncc(Cl)c(Nc4ccccc4P(C)(C)=O)n3)cc1C)C2 [Example 2, (2-((5-chloro-2-((3-methyl-4-(7-(methylamino)-2-azaspiro[3.5]nonan-2-yl)phenyl)amino)pyrimidin-4-yl)amino)phenyl)dimethylphosphine oxide]	10 to 50	10 to 50	66	2 to 10								
Cc1cc(Nc2ncc(Cl)c(Nc3ccccc3P(C)(C)=O)n2)ccc1N1CCC2(CC1)CC(N(C)C)C2 [Example 15, (2-((5-chloro-2-((4-(2-(dimethylamino)-7-azaspiro[3.5]nonan-7-yl)-3-methylphenyl)amino)pyrimidin-4-yl)amino)phenyl)dimethylphosphine oxide]					15.5	17	6940	575	6	4.38	0.7	27.6
Cc1cc(Nc2ncc(C)c(Nc3ccccc3P(C)(C)=O)n2)ccc1N1CC2(CC(N)C2)C1 [Example 22, (2-((2-((4-(6-amino-2-azaspiro[3.3]heptan-2-yl)-3-methylphenyl)amino)-5-methylpyrimidin-4-yl)amino)phenyl)dimethylphosphine oxide]	> 50	> 50	57	2 to 10								
COc1cnc(Nc2ccc(N3CC4(CC(N)C4)C3)c(C)c2)nc1Nc1ccccc1P(C)(C)=O [Example 23, (2-((2-((4-(6-amino-2-azaspiro[3.3]heptan-2-yl)-3-methylphenyl)amino)-5-methoxypyrimidin-4-yl)amino)phenyl)dimethylphosphine oxide]	> 50	> 50	167								11	
Cc1cc(Nc2ncc(F)c(Nc3ccccc3P(C)(C)=O)n2)ccc1N1CC2(CC(N)C2)C1 [Example 24, (2-((2-((4-(6-amino-2-azaspiro[3.3]heptan-2-yl)-3-methylphenyl)amino)-5-fluoropyrimidin-4-yl)amino)phenyl)dimethylphosphine oxide]	> 50	> 50	101								18	
Cc1cc(Nc2ncc(Cl)c(Nc3ccccc3P(C)(C)=O)n2)ccc1N1CC2(CC(N)C2)C1 [Example 25, (2-((2-((4-(6-amino-2-azaspiro[3.3]heptan-2-yl)-3-methylphenyl)amino)-5-chloropyrimidin-4-yl)amino)phenyl)dimethylphosphine oxide]			28		18	24.2					1.5	
CP(C)(=O)c1ccccc1Nc1nc(Nc2ccc(N3CC4(CC(N)C4)C3)c(Cl)c2)ncc1Cl [Example 26, (2-((2-((4-(6-amino-2-azaspiro[3.3]heptan-2-yl)-3-chlorophenyl)amino)-5-chloropyrimidin-4-yl)amino)phenyl)dimethylphosphine oxide]	10 to 50	10 to 50	37								1.7	
COc1cnc(Nc2ccc(N3CCC4(CC3)CC(N)C4)c(C)c2)nc1Nc1ccccc1P(C)(C)=O [Example 27, (2-((2-((4-(2-amino-7-azaspiro[3.5]nonan-7-yl)-3-methylphenyl)amino)-5-methoxypyrimidin-4-yl)amino)phenyl)dimethylphosphine oxide]	> 50	> 50	127								4.4	
Cc1cc(Nc2ncc(C#N)c(Nc3ccccc3P(C)(C)=O)n2)ccc1N1CCC2(CC1)CC(N)C2 [Example 28, 2-((4-(2-amino-7-azaspiro[3.5]nonan-7-yl)-3-methylphenyl)amino)-4-((2-(dimethylphosphoryl)phenyl)amino)pyrimidine-5-carbonitrile]	> 50	> 50	> 300	> 10								
CP(C)(=O)c1ccccc1Nc1nc(Nc2ccc(N3CCC4(CC3)CC(NC3CCCC3)C4)c(Cl)c2)ncc1Cl [Example 31, (2-((5-chloro-2-((3-chloro-4-(2-(cyclopentylamino)-7-azaspiro[3.5]nonan-7-yl)phenyl)amino)pyrimidin-4-yl)amino)phenyl)dimethylphosphine oxide]	10 to 50	10 to 50	33								1.6	
CP(C)(=O)c1ccccc1Nc1nc(Nc2ccc(N3CCC4(CC3)CC(NCCO)C4)c(Cl)c2)ncc1Cl [Example 32, (2-((5-chloro-2-((3-chloro-4-(2-((2-hydroxyethyl)amino)-7-azaspiro[3.5]nonan-7-yl)phenyl)amino)pyrimidin-4-yl)amino)phenyl)dimethylphosphine oxide]	> 50	> 50	65								3.2	
